How the values were obtained:
UHRF1 = test: Protein expression changes by mass spectrometry in H929 cells; type: cell-based; conditions: CC-220 0.1 μM, 24 hr vs DMSO
Experimental: FIG. 1A-1F. Down regulation of UHRF1 transcription by IMiDs correlates with drug sensitivity of multiple myeloma. (1A) Volcano plot of protein expression changes determined by mass spectrometry in H929 cells at 24 hr of treatment with CC-220 (0.1 μM) or DMSO control. X axis, Log2fold change (FC); Y axis, significance,-log 10 [p-value]. […] (1B) Volcano plot of gene expression changes determined by Affymetrix microarray in H929 cells treated with POM (1 μM) or DMSO for 24 hr. X axis, Log2fold change (FC); Y axis, significance,-log 10 [p-value], n=2 technical replicates). […] (1C) Western blot analysis protein expression of UHRF1, Ikaros, Aiolos and ZFP91 in H929 cells treated with 1 μM POM for indicated time. (1D) qRT-PCR analysis of UHRF1 gene expression levels in cells as in (1C). Error bars represent the SEM from duplicate measurements. (1E) Western blot analysis protein expression of UHRF1 and indicated proteins in MM cells treated with DMSO (−) or 1 μM POM (+) for 3 days. GAPDH serves as a loading control. (1F) Thymidine incorporation of various MM cell lines treated with indicated dose of POM for 3 days. Error bars represent the SEM from technical replicates. […]

UHRF1 mRNA = test: qRT-PCR of UHRF1 gene expression in MM cells; type: cell-based; conditions: drug sensitive MM (FIG. 6 title)
Experimental: FIG. 1A-1F. Down regulation of UHRF1 transcription by IMiDs correlates with drug sensitivity of multiple myeloma. (1A) Volcano plot of protein expression changes determined by mass spectrometry in H929 cells at 24 hr of treatment with CC-220 (0.1 μM) or DMSO control. X axis, Log2fold change (FC); Y axis, significance,-log 10 [p-value]. […] (1B) Volcano plot of gene expression changes determined by Affymetrix microarray in H929 cells treated with POM (1 μM) or DMSO for 24 hr. X axis, Log2fold change (FC); Y axis, significance,-log 10 [p-value], n=2 technical replicates). […] (1C) Western blot analysis protein expression of UHRF1, Ikaros, Aiolos and ZFP91 in H929 cells treated with 1 μM POM for indicated time. (1D) qRT-PCR analysis of UHRF1 gene expression levels in cells as in (1C). Error bars represent the SEM from duplicate measurements. (1E) Western blot analysis protein expression of UHRF1 and indicated proteins in MM cells treated with DMSO (−) or 1 μM POM (+) for 3 days. GAPDH serves as a loading control. (1F) Thymidine incorporation of various MM cell lines treated with indicated dose of POM for 3 days. Error bars represent the SEM from technical replicates.
FIG. 2A-2E. UHRF1 expression is positively regulated by Ikaros and Aiolos in IMiDs sensitive MM cells. (2A) Western blot analysis protein expression of UHRF1, Ikaros, Aiolos, ZFP91 and Cereblon expression in control [shLuciferase (shLuc)] and cereblon knockdown (shCRBN) H929 cells treated with DMSO and 1 μM POM for 3 days. GAPDH, loading control. Arrow head, UHRF1. (2B) qRT-PCR analysis of UHRF1 gene expression levels in cells as in (2A). Data was normalized to ACTB. Error bars represent the SEM of technical duplicates. *** P<0.001 (Two-tailed unpaired Student's t-test). (2C) Western blot analysis protein expression of UHRF1, Ikaros and Aiolos in stably transduced H929 cells after Dox induction (0, 10, 50 or 100 ng/ml) for 3 days of non-target shRNA (shNT) or shRNAs targeting Ikaros (shIKZF1) or Aiolos (shIKZF3). (2D) qRT-PCR analysis of UHRF1 gene expression levels in cells as in (2C). Shown are cells induced with Dox (50 ng/ml) for 3 days. Data was normalized to GAPDH. Error bars represent the SEM of technical duplicates. *P<0.05, ** P<0.01, *** P<0.001, **** P<0.0001 (Two-tailed unpaired Student's t-test). (2E) ChIP-qPCR analysis of the occupancy Aiolos (upper panel) or H3K27ac (lower panel) occupancy at transcription star site (TSS), gene body (+7 kb) and gene end (GE) of UHRF1 gene in H929, MM1.S or RPMI 8226 cells treated with DMSO or 1 μM POM for 24 hr. ChIP with control rabbit IgG (IgG) serves as a negative control. Error bars represent the SEM of technical triplicates. * P<0.05, ** P<0.01, **** P<0.0001 (Two-tailed unpaired Student's t-test).
FIG. 6A-6D. […] (6A) Immunocytochemistry assay of UHRF1 in H929 cells treated with DMSO or 1 μM POM for 48 hrs. (6B) qRT-PCR analysis of UHRF1 gene expression levels in indicated MM cells treated with indicated doses of POM for 3 days. Data was normalized to ACTB. Error bars represent the SEM from duplicate measurements. * P<0.05, ** P<0.01, *** P<0.001, **** P<0.0001 (Two-tailed Student's t-test). […]
Total RNA was extracted by RNeasy Mini Kit (Qiagen) and reverse transcribed by iScrip cDNA Synthesis Kit (Bio-rad). Quantitative real-time PCR (qPCR) was conducted on a VillA 7 System using the Power SYBR Green PCR Master Mix (Applied Biosystems). Gene expression values were calculated by normalization to Actb using the comparative CT method.

[1] = tested on: acute myeloid leukemia (AML); conditions: administered alone; cited from earlier work

Molecule	UHRF1 protein expression change (mass spectrometry) (UHRF1)	UHRF1 gene expression (UHRF1 mRNA)	response in treating AML at relapse [1]
O=C1CC[C@H](N2Cc3c(OCc4ccc(CN5CCOCC5)cc4)cccc3C2=O)C(=O)N1 [CC-220]	one of the most significantly downregulated proteins	downregulated	
CT-011: anti-PD-1 antibody, a humanized antibody			failed to show response

From patent US20260234630A1, “Methods for Treating Multiple Myeloma” (Celgene Corporation, priority 2022, published 2026)
